Assay results reported in US9326512B2, “Synergistic combination of a flurochloridone compound and zinc pyrithione for dry film protection” (Rohm and Haas Company, priority 2013, dated 2016).

Tested on: Chlorella sp. ATCC 7516
Experiment: Algal efficacy testing of dry paint films (modified ASTM 5589, 6-well plates)
Format: cell-based
Conditions: 3 weeks; for Total conc (lowest total biocide concentration in paint passing ≧75% inhibition): pass level ≧75% algal growth inhibition, dry paint film coupon
Procedure: These paints were then diluted with an antimicrobial free acrylic/silicone based paint and mixed to prepare targeted concentrations of antimicrobial compounds for the testing. The total biocides concentrations tested were 125, 250, 500, 1000, 2000 and 5000 ppm. After biocides addition or dilution, the paints were mixed 90 seconds with the horse power shaker (AXEL 75M3372/Agitateur SO-10MI) until uniformity was achieved. Paints containing different antimicrobial compounds at the same levels were mixed together in order to obtain the desired ratio of antimicrobial compounds. After one day, the paints were applied to Schleicher & Schuell filter paper at 280 μm wft and dried for 3 days at room temperature avoiding direct exposure to sunlight. Square discs (1.6 cm×1.6 cm) were cut out from each panel and were used as the substrate for algal efficacy tests. This sample size allowed for an agar border when the sample disc was placed into the well of the test plate.
Algal efficacy was tested according to modified ASTM 5589 which is a standard accelerated test method for determining resistance of various coatings (including paints) to algal defacement. To accommodate for high-throughput screening, this method was scaled down from petri dishes to 6-well plates. Bold Modified Basal Freshwater Nutrient Solution was used as growth medium. A single coated filter paper coupon was placed with a pair of sterile forceps at the center of the agar plug (on top) with the painted surface facing upwards.
Each well that contains a tested coupon was inoculated with 1750 μl of algal suspensions (1×10^6 cfu/ml) making sure that the whole surface (paint film as well as the agar surrounding it) was evenly covered. The plates were incubated at room temp (21° C.-25° C.) with cyclic exposure to light and dark phases, for a period of three weeks.
At the end of the three week incubation period, the samples were scored for percent inhibition regarding color intensity compared to the blank sample.
The Synergy Index calculation was performed as follows.
The SI is calculated based on F. C.
SI value of <1 in the formula indicates a synergism of the blended biocides exists.
The minimal targeted inhibition was set at 75%, meaning a coupon with at least 75% algal growth inhibition was considered as a pass.

Compound | Total conc (lowest total biocide concentration in paint passing ≧75% inhibition) | inhibition at 5000 ppm (504 h, total conc 5000 ppm in paint) | % inhibition (total conc 500 ppm in paint)
O=C1C(Cl)C(CCl)CN1c1cccc(C(F)(F)F)c1 (stereo not shown) [Flurochloridone, 3-chloro-4-(chloromethyl)-1-[3-(trifluoromethyl)phenyl]-2-pyrrolidinone] | 5000 ppm | 85% | –
[O-][n+]1ccccc1[S][Zn][S]c1cccc[n+]1[O-] [ZnPT, bis(2-pyridylthio)zinc 1,1′-dioxide] | 500 ppm | – | 95%
